{"source": "patent US7288556B2", "about": "“Antiproliferative 1,2,3-thiadiazole compounds” (QLT Inc., priority 2000, dated 2007)"}
{"tested_on": "chick chorioallantoic membrane", "assay": "Chick chorioallantoic membrane (CAM) developmental angiogenesis assay", "assay_type": "in vivo, chicken", "details": "50 μm", "protocol": "e. Chick chorioallantoic membrane assay (CAM assay): was performed on fertilized chicken eggs and used as a test for angiogenesis inhibition.\nApproximately 4 dozen fertilized eggs were sprayed with 70% ETOH and placed in a 180 egg incubator (GQF Sportsman incubator). The eggs were incubated “rounded-side down” and were fully rotated along the vertical axis every 30 minutes at 37° C. under 90% relative humidity.\nAfter 4 days, the eggs were placed upside down (round side up) for 5-10 minutes, before a round hole approximately 3 centimeters in diameter was created above the pointed end or “air hole” of the egg using sterile blunt-ended forceps (“deshelling”). The inner membrane was also removed, and the embryo was visible through this opening. A small portion of the outer membrane was then carefully removed using fine-tipped forceps in order to expose the CAM. Sterile Parafilm was placed over the de-shelled opening to create an airtight seal. The eggs were returned to the incubator (with no rotation) for 2 days.\nViable eggs were then treated with control and inhibitor compounds. Gelfoam™ gelatin sterile sponge (Upjohn) or 1-2 mm discs of methylcellulose saturated with physiological saline, buffer or an appropriate dilution of the compounds under investigation. The Gelfoam™ fragments of methylcellulose discs were added directly to the surface of the developing CAM. Care was taken not to add the treatment directly over a large vessel. The shells were marked in 3 places to aid in stereotactic localization of the treatment sponge or disc. An average of 6 eggs were included for each experimental condition. The treated eggs were returned to the incubator for 2 days.\nThe eggs were then assessed for blood vessel growth inhibition. Photomicrographs for records and visual examination were made using a Nikon dissecting microscope with an attached Nikon 35-mm camera body.", "units": {"% Inhibition": "%"}}
{"molecule": "CCNc1snnc1C(N)=O", "note": "[KP 27304, 5-Ethylamino-[1,2,3]thiadiazole-4-carboxylicacid amide]", "% Inhibition": 60}
{"molecule": "NC(=O)c1nnsc1Nc1cccc2ccccc12", "note": "[KP 27301, 5-(Naphthalen-1-ylamino)-[1,2,3]thiadiazole-4-carboxylicacid amide]", "% Inhibition": 100}
{"tested_on": "not given", "assay": "not given", "details": "not given", "units": {"melting point": "°C"}}
{"molecule": "CN(c1ccccc1)c1snnc1C(N)=O", "note": "[KP 27420, 5-(Methylphenylamino)-[1,2,3]thiadiazole-4-carboxylicacid amide]", "melting point": "194 to 196"}
{"biological_target": "T1, integrin linked kinase (ILK1), full-length recombinant GST-ILK (Homo sapiens, UniProt Q13418)", "T1 construct": "The target integrin linked kinase is a full-length recombinant protein expressed in sF9 insect cells by baculovirus infection; made in house; host or cells: Baculovirus; virus amplified in Sf9 cells, protein expressed in Hi5 insect cells", "T1 sequence (Q13418 1-452)": "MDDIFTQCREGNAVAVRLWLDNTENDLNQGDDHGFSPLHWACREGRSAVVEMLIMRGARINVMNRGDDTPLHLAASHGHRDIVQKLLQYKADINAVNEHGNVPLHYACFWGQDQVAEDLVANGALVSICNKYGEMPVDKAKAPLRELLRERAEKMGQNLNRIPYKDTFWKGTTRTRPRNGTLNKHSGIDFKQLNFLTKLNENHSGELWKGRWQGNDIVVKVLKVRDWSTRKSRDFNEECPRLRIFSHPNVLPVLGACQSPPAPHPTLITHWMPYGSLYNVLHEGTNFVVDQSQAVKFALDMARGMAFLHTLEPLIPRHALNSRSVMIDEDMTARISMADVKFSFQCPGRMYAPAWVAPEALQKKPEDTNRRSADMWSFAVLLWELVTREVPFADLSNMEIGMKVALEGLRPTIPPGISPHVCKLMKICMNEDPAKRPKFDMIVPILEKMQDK", "assay": "Integrin linked kinase inhibition assay (radioactive phosphate incorporation, scintillation counting)", "assay_type": "biochemical", "details": "not given", "protocol": "Compounds are screened using a series of disease related kinase targets, such as integrin linked kinase-1. Synthesized libraries of compounds are tested against each of the targets to find compounds that inhibit one of the targets preferentially.\nInhibition of the targets is measured by scintillation counting; the incorporation of radioactive phosphate onto a specific substrate which is immobilized onto a filter paper at the end of the assay. To provide meaningful measurements of inhibition, the assays are performed both in the absence and presence of specific and known inhibitors, and the amount of incorporated radioactivity is compared to provide a baseline measurement.\nInhibition Assay: Compounds listed in Table 1 were lyophilized and stored at −20° C. Stock solutions were made by weighing out the compounds and dissolving them in dimethyl sulfoxide (DMSO) to a standard concentration, usually 20 mM, and stored at −20° C. […] Diluted 100% DMSO was used as a negative control.\nA volume of 5 μl of each compound dilution were robotically pipetted to Costar serocluster plates maintaining the same plate format. All assays consisted of the following volumes: • 5 μl diluted compound • 10 μl enzyme preparation • 5 μl substrate • 5 μl assay ATP and were then incubated 15 min at room temperature.\nFrom each reaction, 10 μl of reaction mix was spotted onto Millipore Multiscreen-PH opaque plates and washed 2×10 min in 1% phosphoric acid. The plates were dried for at 40° C. for 30 min, then the substrate phosphate complexes were quantitated by scintillation counting. These Millipore plates are in a 96 well format with immobilized P81 phosphocellulose membranes. Both the phosphorylated and non-phosphorylated form of the substrate bind to the membrane while ATP (unincorporated phosphate) is removed in the subsequent wash steps.\nIntegrin Linked Kinase: The target integrin linked kinase is a full-length recombinant protein expressed in sF9 insect cells by baculovirus infection. The ILK1 substrate is […]-amide.\nRecombinant ILK protein was expressed using cultured insect cells and a baculovirus expression system.\nA large scale plasmid preparation of the resulting transfer construct was made using a Qiagen Plasmid Midi Kit. This ILK transfer construct was then co-transfected with BaculoGold DNA (Pharmingen) into Sf9 insect cells (Invitrogen) and a high titre preparation of GST-ILK recombinant baculovirus was produced by amplification in Sf9 cells. Liter scale expression of GST-ILK recombinant protein was done in 1000 ml spinner flasks (Bellco) by infection of Hi5 insect cells (Invitrogen) grown in Ex-Cell 400 Serum Free Media (JRH Biosciences) at a multiplicity of infection of approximately 5. The cells were harvested three days after infection and lysed in Hypotonic Lysis Buffer (HLB; 10 mM imidazole, 5 mM EDTA, 0.1% β-mercaptoethanol, 10 ug/ml PMSF, 1 mM benzamidine) by sonication. The lysate was centrifuged at 10,000×g for 20 min and the supernatant was discarded. The pellet was washed twice in HLB and then washed twice in High Salt Buffer (HSB; 500 mM NaCl, 10 mM imidazole, 5 mM EDTA, 0.1% β-mercaptoethanol, 10 ug/ml PMSF, 1 mM benzamidine). The pellet was then resuspended in DNAse-ATP Buffer (DAB; 10 mM MgCl2, 1 mM MnCl2, β-methyl aspartic acid, 2 mM NaF, 0.55 mg/ml ATP, 1 ug/ml DNAse I, 1% NP-40, 10 mM imidazole, 5 mM EDTA, 0.1% β-mercaptoethanol, 10 ug/ml PMSF, 1 mM benzamidine) and stirred for 30 min at room temperature, and then centrifuged at 10,000×g for 20 min. The pellet was resuspended in High Salt Detergent Buffer (HDB; 1% NP-40, 1% Triton X-100, 500 mM NaCl, 10 mM imidazole, 5 mM EDTA, 0.1% β-mercaptoethanol, 10 ug/ml PMSF, 1 mM benzamidine), stirred for 30 min at room temperature, and then centrufuged at 10,000×g for 20 min. The pellet was then washed once in each of HDB, HSB, and HLB, centrifuging at 10,000×g each time. Finally, the pellet was resuspended in HLB.", "units": {"IC50": "µM"}}
{"molecule": "NC(=O)c1nnsc1Nc1ccc(Br)cc1", "note": "[KP 27296, 5-(4-Bromophenylamino)-[1,2,3]thiadiazole-4-carboxylicacid amide]", "IC50": "> 20"}
{"molecule": "COc1ccc(Nc2snnc2C(N)=O)cc1", "note": "[KP 27297, 5-(4-Methoxyphenylamino)-[1,2,3]thiadiazole-4-carboxylicacid amide]", "IC50": "> 20"}
{"molecule": "CCCCCCNc1snnc1C(N)=O", "note": "[KP 27305, 5-Hexylamino-[1,2,3]thiadiazole-4-carboxylicacid amide]", "IC50": "> 20"}
{"molecule": "CN(c1ccccc1)c1snnc1C(N)=O", "note": "[KP 27420, 5-(Methylphenylamino)-[1,2,3]thiadiazole-4-carboxylicacid amide]", "IC50": "> 20"}
{"molecule": "NC(=O)c1nnsc1NC(=O)c1ccccc1", "note": "[KP 27303, 5-Benzoylamino-[1,2,3]thiadiazole-4-carboxylicacid amide]", "IC50": "> 20"}
{"molecule": "CCNc1snnc1C(N)=O", "note": "[KP 27304, 5-Ethylamino-[1,2,3]thiadiazole-4-carboxylicacid amide]", "IC50": "> 20"}
{"molecule": "NCc1nnsc1Nc1ccccc1", "note": "[KP 27422, (4-Aminomethyl-[1,2,3]thiadiazol-5-yl)phenylamine]", "IC50": "> 20"}
{"molecule": "NC(=O)c1nnsc1NC1CCCCC1", "note": "[KP 27300, 5-Cyclohexylamino-[1,2,3]thiadiazole-4-carboxylicacid amide]", "IC50": "> 20"}
{"molecule": "O=C(O)c1nnsc1Nc1ccccc1", "note": "[KP-27271, 5-Phenylamino-[1,2,3]thiadiazole-4-carboxylicacid]", "IC50": "> 20"}
{"molecule": "NC(=O)c1nnsc1NCc1ccccc1", "note": "[KP 27302, 5-Benzylamino-[1,2,3]thiadiazole-4-carboxylicacid amide]", "IC50": "> 20"}
{"molecule": "CCOC(=O)Nc1snnc1C(N)=O", "note": "[KP 27298, (4-Carbamoyl-[1,2,3]thiadiazol-5-yl)-carbamicacid ethyl ester]", "IC50": "> 20"}
{"molecule": "NC(=O)c1nnsc1NC12CC3CC(CC(C3)C1)C2", "note": "[KP 27299, 5-(Adamantan-1-ylamino)-[1,2,3]thiadiazole-4-carboxylicacid amide]", "IC50": "> 20"}
{"molecule": "CC(=O)NC(=O)c1nnsc1Nc1ccccc1", "note": "[KP 27421, 5-Phenylamino-[1,2,3]thiadiazole-4-carboxylicacid acetylamide]", "IC50": "> 20"}
